Results: US20100286092A1, “BETA-LACTAMASE INHIBITORS” (priority 2007, published 2010)

What was measured:
Details in all cases: in the presence of a fixed amount (8 μg/mL) of Ceftazidime; CAMHB, 16-20 hours at 37° C.
[1] = test system: K. pneumoniae expressing the Class A carbapenemase KPC-2
Excerpt: (§1) To determine the ability of test compounds to potentiate the inhibition of the growth of bacterial strains producing beta-lactamase enzymes, classic cell based screening assays were employed. Four bacteria strains producing beta-lactamase enzymes were used: K. pneumoniae expressing the Class A Extended Spectrum Beta-Lactamase (ESBL) CTX-M-15, E. coli expressing the Class A ESBL SHV-5, E. cloacae expressing the Class C P99+, and K. pneumoniae expressing the Class A carbapenemase KPC-2. In order to evaluate the ability of test compounds to inhibit beta-lactamase activity, Applicants used a modification of the broth microdilution assay. The assay was conducted in Cation Adjusted Mueller Hinton Broth (CAMHB, BD #212322, BD Diagnostic Systems, Sparks, Md.). Bacteria strains were grown for 3-5 hours in CAMBH broth. All four strains were grown in presence of 50 μg/mL ampicillin to ensure resistance is maintained. In the meantime, test compounds were diluted in DMSO to a 0.1 mg/mL stock. The compounds were added to a microtiter plate and were diluted in 2-fold serial dilutions in CAMHB in a final concentration range of 8 μg/mL to 0.015 μg/ml. An overlay of CAMHB containing a cephalosporin was added to the compounds at a final static concentration of 8 μg/ml. […] Each of these compound plates are made in quadruplicate, one for each bacteria strain. In addition to the titration of test compounds the MICs of a panel of cephalosporins is also tested to ensure the strains are behaving consistently from test to test. Once the test compound and cephalosporin are added the plates can be inoculated. Inocula are conducted according to CLSI broth microdilution method. After inoculation the plates are incubated for 16-20 hours at 37° C. then the Minimal Inhibitory Concentration (MIC) of the test compound is determined visually.
(§2) Using the methodology described above, examples of the current invention were evaluated for their ability to inhibit the growth of β-lactamase producing bacteria in the presence of a β-lactam antibiotic. […] NT=Not Tested.

[2] = test system: E. coli expressing the Class A ESBL SHV-5; assay type: cell-based
Excerpt: as §1, §2

[3] = test system: E. cloacae expressing the Class C P99+; assay type: cell-based
Excerpt: as §1, §2

[4] = test system: K. pneumoniae expressing the Class A Extended Spectrum Beta-Lactamase (ESBL) CTX-M-15; assay type: cell-based
Excerpt: as §1, §2

Compound	MIC of example compound, K. pneumoniae KPC-2 + 8 μg/mL CAZ [1]	MIC of example compound, E. coli SHV-5 + 8 μg/mL CAZ [2]	MIC of example compound, E. cloacae P99 AmpC + 8 μg/mL CAZ [3]	MIC of example compound, K. pneumoniae CTX-M-15 + 8 μg/mL CAZ [4]
Cl.NCCOc1cccc(CC(=O)N[C@@H](Cc2cccc(C(=O)O)c2O)B(O)O)c1 [Example 4, (1R)-1-[3-(2-amino)-ethoxy-phenyl]acetylamino-1-(3-carboxy-2-hydroxy)benzyl-methylboronic acid hydrochloride]	C (C represents an MIC of <1 μg/mL)	C (C represents an MIC of <1 μg/mL)	C (C represents an MIC of <1 μg/mL)	C (C represents an MIC of <1 μg/mL)
O=C(Cc1ccccc1)N[C@@H](Cc1cccc(C(=O)O)c1O)B(O)O [Example 10]	C (C represents an MIC of <1 μg/mL)	C (C represents an MIC of <1 μg/mL)	C (C represents an MIC of <1 μg/mL)	C (C represents an MIC of <1 μg/mL)
CCCCC(=O)N[C@@H](Cc1cccc(C(=O)O)c1O)B(O)O [Example 23, (1R)-1-(pentanoylamino)-2-(2-hydroxy-3-carboxyphenyl)ethyl-1-boronic acid]	C (C represents an MIC of <1 μg/mL)	C (C represents an MIC of <1 μg/mL)	C (C represents an MIC of <1 μg/mL)	C (C represents an MIC of <1 μg/mL)
Nc1nc(CC(=O)N[C@@H](Cc2cccc(C(=O)O)c2O)B(O)O)cs1.O=CO [Example 39, (1R)-1-(2-Amino-thiazol-4-yl)-acetylamino-1-(3-carboxy-2-hydroxy)benzyl-methylboronic acid formate salt]	C (C represents an MIC of <1 μg/mL)	C (C represents an MIC of <1 μg/mL)	C (C represents an MIC of <1 μg/mL)	C (C represents an MIC of <1 μg/mL)
NCC(=O)N[C@@H](Cc1cccc(C(=O)O)c1O)B(O)O.O=CO [Example 41, (1R)-1-(2-aminoacetylamino)-2-(2-hydroxy-3-carboxyphenyl)ethyl-1-boronic acid formate salt]	C (C represents an MIC of <1 μg/mL)	A (A represents an MIC>8 μg/mL)	A (A represents an MIC>8 μg/mL)	A (A represents an MIC>8 μg/mL)
